# From patent US10238670B2, “9-aminomethyl minocycline compounds and methods of use thereof in urinary tract infection (UTI) treatment” (Paratek Pharmaceuticals, Inc., priority 2016, dated 2019)
# Like-named read-outs stand apart in the source and are kept apart here.
# Columns and labels:
# [1] = tested on: human plasma protein; conditions: cited from earlier work
# [2] = tested on: E. faecalis VS; assay: In vitro MIC, 2010 surveillance isolates; type: cell-based
# [3] = tested on: E. cloacae CeftazR; assay: In vitro MIC, 2010 surveillance isolates; type: cell-based
# [4] = tested on: MS CoNS; assay: In vitro MIC, 2010 surveillance isolates; type: cell-based, Coagulase-Negative Staphylococcus
# [5] = tested on: E. coli ESBL+; assay: In vitro MIC, 2010 surveillance isolates; type: cell-based, Escherichia coli
# [6] = tested on: E. faecium VNS; assay: In vitro MIC, 2010 surveillance isolates; type: cell-based
# [7] = tested on: A. baumanii; assay: In vitro MIC, 2010 surveillance isolates; type: cell-based; conditions: for % R (resistance): CLSI breakpoints
# [8] = tested on: E. coli ESBL−; assay: In vitro MIC, 2010 surveillance isolates; type: cell-based, Escherichia coli
# [9] = tested on: K. pneumoniae ESBL+; assay: In vitro MIC, 2010 surveillance isolates; type: cell-based, Klebsiella pneumoniae
# [10] = tested on: K. oxytoca; assay: In vitro MIC, 2010 surveillance isolates; type: cell-based
# [11] = tested on: E. faecalis VNS; assay: In vitro MIC, 2010 surveillance isolates; type: cell-based
# [12] = tested on: Enterobacter spp; assay: In vitro MIC, 2010 surveillance isolates; type: cell-based
# [13] = tested on: Acinetobacter spp; assay: In vitro MIC, 2010 surveillance isolates; type: cell-based; conditions: for % R (resistance): CLSI breakpoints
# [14] = tested on: K. pneumoniae ESBL−; assay: In vitro MIC, 2010 surveillance isolates; type: cell-based, Klebsiella pneumoniae
# [15] = tested on: E. faecium VS; assay: In vitro MIC, 2010 surveillance isolates; type: cell-based
# [16] = tested on: MSSA; assay: In vitro MIC, 2010 surveillance isolates; type: cell-based
# [17] = tested on: MRSA; assay: In vitro MIC, 2010 surveillance isolates; type: cell-based
# [18] = tested on: E. cloacae CeftazS; assay: In vitro MIC, 2010 surveillance isolates; type: cell-based
# [19] = tested on: MR CoNS; assay: In vitro MIC, 2010 surveillance isolates; type: cell-based, Coagulase-Negative Staphylococcus
molecule,measurement,setting,value
CCCCCCCCCC(=O)N[C@@H](Cc1c[nH]c2ccccc12)C(=O)N[C@H](CC(N)=O)C(=O)N[C@@H](CC(=O)O)C(=O)N[C@@H]1C(=O)NCC(=O)N[C@@H](CCCN)C(=O)N[C@@H](CC(=O)O)C(=O)N[C@H](C)C(=O)N[C@@H](CC(=O)O)C(=O)NCC(=O)N[C@H](CO)C(=O)N[C@@H]([C@H](C)CC(=O)O)C(=O)N[C@@H](CC(=O)c2ccccc2N)C(=O)O[C@@H]1C [Daptomycin],protein bound in human plasma,[1],> 75%
CC(=O)NC[C@H]1CN(c2ccc(N3CCOCC3)c(F)c2)C(=O)O1 [Linezolid],protein bound in human plasma,"[1]; human, plasma",31%
CN(C)c1ccc(O)c2c1C[C@H]1C[C@H]3[C@H](N(C)C)C(O)=C(C(N)=O)C(=O)[C@@]3(O)C(O)=C1C2=O [Minocycline],"human plasma protein binding, Mean","[1]; human, plasma",76%
Nc1nc(-n2cc(C(=O)O)c(=O)c3cc(F)c(N4CC(O)C4)c(Cl)c32)c(F)cc1F [delafloxacin],protein bound in human plasma,[1],> 75%
Cn1nnc(-c2ccc(-c3ccc(N4C[C@H](CO)OC4=O)cc3F)cn2)n1 [tedizolid],protein bound in human plasma,[1],> 75%
piperacillin-tazobactam [Pip/tazo],% R (resistance),"[2]; Asia/Pac, Eucast breakpoints",0%
same,MIC90,"[2]; Asia/Pac, N=214",8 µg/mL
same,% R (resistance),"[2]; Europe, Eucast breakpoints",0%
same,MIC90,"[2]; Europe, N=669",8 µg/mL
same,% R (resistance),"[2]; L. Amer, CLSI breakpoints",0%
same,MIC90,"[2]; L. Amer, N=290",8 µg/mL
same,% R (resistance),"[2]; N America, CLSI breakpoints",0%
same,MIC90,"[2]; N America, N=863",8 µg/mL
same,% R (resistance),"[3]; Asia/Pac, Eucast breakpoints",55.6%
same,MIC90,"[3]; Asia/Pac, N=63",> 64 µg/mL
same,% R (resistance),"[3]; Europe, Eucast breakpoints",62.5%
same,MIC90,"[3]; Europe, N=72",> 64 µg/mL
same,% R (resistance),"[3]; L. Amer, CLSI breakpoints",23.8%
same,MIC90,"[3]; L. Amer, N=42",> 64 µg/mL
same,% R (resistance),"[3]; N America, CLSI breakpoints",48.1%
same,MIC90,"[3]; N America, N=77",> 64 µg/mL
same,% R (resistance),"[4]; Asia/Pac, Eucast breakpoints",0%
same,MIC90,"[4]; Asia/Pac, N=18",1 µg/mL
same,% R (resistance),"[4]; Europe, Eucast breakpoints",0%
same,MIC90,"[4]; Europe, N=185",≤ 0.5 µg/mL
same,% R (resistance),"[4]; L. Amer, CLSI breakpoints",0%
same,MIC90,"[4]; L. Amer, N=67",1 µg/mL
same,% R (resistance),"[4]; N America, CLSI breakpoints",0%
same,MIC90,"[4]; N America, N=191",≤ 0.5 µg/mL
same,% R (resistance),"[5]; Asia/Pac, Eucast breakpoints",7.3%
same,MIC90,"[5]; Asia/Pac, N=219",16 µg/mL
same,% R (resistance),"[5]; Europe, Eucast breakpoints",24.1%
same,MIC90,"[5]; Europe, N=274",> 64 µg/mL
same,% R (resistance),"[5]; L. Amer, CLSI breakpoints",7.7%
same,MIC90,"[5]; L. Amer, N=168",64 µg/mL
same,% R (resistance),"[5]; N America, CLSI breakpoints",6%
same,MIC90,"[5]; N America, N=134",64 µg/mL
same,MIC90,"[6]; Asia/Pac, N=24",> 64 µg/mL
same,MIC90,"[6]; Europe, N=71",> 64 µg/mL
same,MIC90,"[6]; L. Amer, N=41",> 64 µg/mL
same,MIC90,"[6]; N America, N=478",> 64 µg/mL
same,MIC90,"[7]; Asia/Pac, N=275",> 64 µg/mL
same,MIC90,"[7]; Europe, N=145",> 64 µg/mL
same,% R (resistance),[7]; L. Amer,88.7%
same,MIC90,"[7]; L. Amer, N=275",> 64 µg/mL
same,% R (resistance),[7]; N America,70.1%
same,MIC90,"[7]; N America, N=154",> 64 µg/mL
same,% R (resistance),"[8]; Asia/Pac, Eucast breakpoints",2.5%
same,MIC90,"[8]; Asia/Pac, N=282",4 µg/mL
same,% R (resistance),"[8]; Europe, Eucast breakpoints",5.3%
same,MIC90,"[8]; Europe, N=1533",4 µg/mL
same,% R (resistance),"[8]; L. Amer, CLSI breakpoints",1.5%
same,MIC90,"[8]; L. Amer, N=389",4 µg/mL
same,% R (resistance),"[8]; N America, CLSI breakpoints",0.9%
same,MIC90,"[8]; N America, N=1172",4 µg/mL
same,% R (resistance),"[9]; Asia/Pac, Eucast breakpoints",47.6%
same,MIC90,"[9]; Asia/Pac, N=124",> 64 µg/mL
same,% R (resistance),"[9]; Europe, Eucast breakpoints",57%
same,MIC90,"[9]; Europe, N=151",> 64 µg/mL
same,% R (resistance),"[9]; L. Amer, CLSI breakpoints",51.7%
same,MIC90,"[9]; L. Amer, N=209",> 64 µg/mL
same,% R (resistance),"[9]; N America, CLSI breakpoints",51.9%
same,MIC90,"[9]; N America, N=108",> 64 µg/mL
same,% R (resistance),"[10]; Asia/Pac, Eucast breakpoints",17.6%
same,MIC90,"[10]; Asia/Pac, N=17",64 µg/mL
same,% R (resistance),"[10]; Europe, Eucast breakpoints",13.3%
same,MIC90,"[10]; Europe, N=158",> 64 µg/mL
same,% R (resistance),"[10]; L. Amer, CLSI breakpoints",16%
same,MIC90,"[10]; L. Amer, N=25",> 64 µg/mL
same,% R (resistance),"[10]; N America, CLSI breakpoints",7.9%
same,MIC90,"[10]; N America, N=177",16 µg/mL
same,"range of MICs (N <10, shown instead of MIC90)","[11]; Asia/Pac, N=1",8
same,% R (resistance),"[11]; Europe, Eucast breakpoints",0%
same,"range of MICs (N <10, shown instead of MIC90)","[11]; Europe, N=8",4-16
same,% R (resistance),"[11]; L. Amer, CLSI breakpoints",0%
same,"range of MICs (N <10, shown instead of MIC90)","[11]; L. Amer, N=7",4-8
same,% R (resistance),"[11]; N America, CLSI breakpoints",0%
same,MIC90,"[11]; N America, N=38",8 µg/mL
same,% R (resistance),"[12]; Asia/Pac, Eucast breakpoints",19.2%
same,MIC90,"[12]; Asia/Pac, N=52",32 µg/mL
same,% R (resistance),"[12]; Europe, Eucast breakpoints",32.9%
same,MIC90,"[12]; Europe, N=82",64 µg/mL
same,% R (resistance),"[12]; L. Amer, CLSI breakpoints",7.1%
same,MIC90,"[12]; L. Amer, N=42",64 µg/mL
same,% R (resistance),"[12]; N America, CLSI breakpoints",4%
same,MIC90,"[12]; N America, N=101",64 µg/mL
same,MIC90,"[13]; Europe, N=43",> 64 µg/mL
same,% R (resistance),[13]; L. Amer,55.6%
same,% R (resistance),[13]; N America,19%
same,MIC90,"[13]; N America, N=42",> 64 µg/mL
same,% R (resistance),"[14]; Asia/Pac, Eucast breakpoints",2.1%
same,MIC90,"[14]; Asia/Pac, N=189",8 µg/mL
same,% R (resistance),"[14]; Europe, Eucast breakpoints",0%
same,MIC90,"[14]; Europe, N=361",8 µg/mL
same,% R (resistance),"[14]; L. Amer, CLSI breakpoints",1.9%
same,MIC90,"[14]; L. Amer, N=160",4 µg/mL
same,% R (resistance),"[14]; N America, CLSI breakpoints",0.7%
same,MIC90,"[14]; N America, N=671",8 µg/mL
same,MIC90,"[15]; Asia/Pac, N=106",> 64 µg/mL
same,MIC90,"[15]; Europe, N=303",> 64 µg/mL
same,MIC90,"[15]; L. Amer, N=51",> 64 µg/mL
same,MIC90,"[15]; N America, N=115",> 64 µg/mL
same,% R (resistance),"[16]; Asia/Pac, Eucast breakpoints",0%
same,MIC90,"[16]; Asia/Pac, N=641",2 µg/mL
same,% R (resistance),"[16]; Europe, Eucast breakpoints",0%
same,MIC90,"[16]; Europe, N=2109",2 µg/mL
same,% R (resistance),"[16]; L. Amer, CLSI breakpoints",0.2%
same,MIC90,"[16]; L. Amer, N=590",2 µg/mL
same,% R (resistance),"[16]; N America, CLSI breakpoints",0.1%
same,MIC90,"[16]; N America, N=2373",2 µg/mL
same,% R (resistance),"[17]; Asia/Pac, Eucast breakpoints",100%
same,MIC90,"[17]; Asia/Pac, N=428",> 64 µg/mL
same,% R (resistance),"[17]; Europe, Eucast breakpoints",100%
same,MIC90,"[17]; Europe, N=750",> 64 µg/mL
same,% R (resistance),"[17]; L. Amer, CLSI breakpoints",100%
same,MIC90,"[17]; L. Amer, N=506",> 64 µg/mL
same,% R (resistance),"[17]; N America, CLSI breakpoints",100%
same,MIC90,"[17]; N America, N=2508",64 µg/mL
same,% R (resistance),"[18]; Asia/Pac, Eucast breakpoints",1%
same,MIC90,"[18]; Asia/Pac, N=100",4 µg/mL
same,% R (resistance),"[18]; Europe, Eucast breakpoints",1.1%
same,MIC90,"[18]; Europe, N=183",4 µg/mL
same,% R (resistance),"[18]; L. Amer, CLSI breakpoints",3.5%
same,MIC90,"[18]; L. Amer, N=57",16 µg/mL
same,% R (resistance),"[18]; N America, CLSI breakpoints",0.5%
same,MIC90,"[18]; N America, N=210",4 µg/mL
same,% R (resistance),"[19]; Asia/Pac, Eucast breakpoints",100%
same,MIC90,"[19]; Asia/Pac, N=77",> 64 µg/mL
same,% R (resistance),"[19]; Europe, Eucast breakpoints",100%
same,MIC90,"[19]; Europe, N=510",> 64 µg/mL
same,% R (resistance),"[19]; L. Amer, CLSI breakpoints",100%
same,MIC90,"[19]; L. Amer, N=301",> 64 µg/mL
same,% R (resistance),"[19]; N America, CLSI breakpoints",100%
same,MIC90,"[19]; N America, N=461",16 µg/mL
